Converted amounts (≈) assume the structure as drawn. One block for each molecule: values may come before it.
How the values were obtained:
[1] = tested on: Staphylococcus aureus; assay: Minimum inhibitory concentration against Staphylococcus aureus (MSCNS) was determined; format: functional
[2] = tested on: Enterococcus faecium; assay: Minimum inhibitory concentration against Enterococcus faecium was determined; Range is […] ug/mL; format: functional
[3] = tested on: Enterococcus faecalis; assay: Minimum inhibitory concentration against Enterococcus faecalis was determined; Range is […] ug/mL; format: functional
[4] = Minimum inhibitory concentration against Gram(-) sp. was determined; Range is […] ug/mL; format: functional
[5] = tested on: Staphylococcus aureus; assay: Minimum inhibitory concentration against Staphylococcus aureus (MSSA) was determined; Range is 32-64 ug/mL; format: functional
[6] = tested on: Candida albicans; assay: Minimum inhibitory concentration against Candida albicans was determined; format: functional
[7] = tested on: Staphylococcus aureus; assay: Minimum inhibitory concentration against Staphylococcus aureus (MRCNS) was determined; format: functional
[8] = tested on: Staphylococcus aureus; assay: Minimum inhibitory concentration against Staphylococcus aureus (MRSA) was determined; Range is 32-64 ug/mL; format: functional
[9] = tested on: Streptococcus; assay: Minimum inhibitory concentration against Streptococcus was determined; […]; format: functional
[10] = tested on: Staphylococcus aureus; assay: Minimum inhibitory concentration against Staphylococcus aureus smith; format: functional
[11] = tested on: Enterococcus faecium; assay: Minimum inhibitory concentration against Enterococcus faecium was determined; Range is 2-4 ug/mL; format: functional
[12] = tested on: Staphylococcus aureus; assay: Minimum inhibitory concentration against Staphylococcus aureus (MSCNS) was determined; Range is 0.5-1 ug/mL; format: functional
[13] = Minimum inhibitory concentration against Gram(-) sp. was determined; format: functional
[14] = tested on: Staphylococcus aureus; assay: Minimum inhibitory concentration against Staphylococcus aureus (MRCNS) was determined; Range is 1-4 ug/mL; format: functional
[15] = tested on: Staphylococcus aureus; assay: Minimum inhibitory concentration against Staphylococcus aureus (MSSA) was determined; Range is 2-4 ug/mL; format: functional
[16] = tested on: Mus musculus; assay: In vivo activity against Staphylococcus aureus smith was determined after iv administration in mice; format: functional
[17] = tested on: Streptococcus; assay: Minimum inhibitory concentration against Streptococcus was determined; format: functional
[18] = tested on: Staphylococcus aureus; assay: Minimum inhibitory concentration against Staphylococcus aureus (MRSA) was determined; format: functional
[19] = tested on: Enterococcus faecalis; assay: Minimum inhibitory concentration against Enterococcus faecalis was determined; format: functional
[20] = tested on: Candida albicans; assay: Minimum inhibitory concentration against Candida albicans GC 3066 was determined; format: functional
[21] = tested on: Streptococcus pneumoniae; assay: Minimum inhibitory concentration against Streptococcus pneumoniae (GC 6242) was determined; format: functional
[22] = tested on: Streptococcus agalactiae; assay: Minimum inhibitory concentration against Streptococcus agalactiae (GC4564) was determined; format: functional
[23] = tested on: Morganella morganii; assay: Minimum inhibitory concentration against Morganella morganii (GC 4381) was determined; format: functional
[24] = tested on: Streptococcus pneumoniae; assay: Minimum inhibitory concentration against Streptococcus pneumoniae (GC 1894) was determined; format: functional
[25] = Minimum inhibitory concentration against SCN (GC 6257) was determined; format: functional
[26] = tested on: Enterococcus faecalis; assay: Minimum inhibitory concentration against Enterococcus faecalis (GC 2691) was determined; format: functional
[27] = tested on: Enterococcus faecium; assay: Minimum inhibitory concentration against Enterococcus faecium (GC 2243) was determined; format: functional
[28] = tested on: Enterococcus faecalis; assay: microbe, parasite or virus in culture
[29] = tested on: Micrococcus luteus; assay: Minimum inhibitory concentration against Sarcina lutea (GC 4562) was determined; format: functional
[30] = tested on: Enterococcus faecalis; assay: Minimum inhibitory concentration against Enterococcus faecalis (GC 4552) was determined; format: functional
[31] = tested on: Enterococcus faecalis; assay: Minimum inhibitory concentration against Enterococcus faecalis (GC 4555) was determined; format: functional
[32] = tested on: Escherichia coli; assay: Minimum inhibitory concentration against Escherichia coli (GC 2203) was determined; format: functional
[33] = tested on: Enterococcus faecalis; assay: Minimum inhibitory concentration against Enterococcus faecalis (GC 4553) was determined; format: functional
[34] = tested on: Streptococcus pyogenes; assay: Minimum inhibitory concentration against Streptococcus pyogenes (GC 4563) was determined; format: functional
[35] = tested on: Enterococcus avium; assay: Minimum inhibitory concentration against Enterococcus avium (GC 4558) was determined; format: functional
[36] = tested on: Enterococcus faecalis; assay: Minimum inhibitory concentration against Enterococcus faecalis (GC 4554) was determined; format: functional
[37] = tested on: Staphylococcus haemolyticus; assay: Minimum inhibitory concentration against Staphylococcus haemolyticus (GC 4546) was determined
[38] = Minimum inhibitory concentration against SCN (GC 4548) was determined; format: functional
[39] = tested on: Enterococcus faecalis; assay: Minimum inhibitory concentration against Enterococcus faecalis (GC 6189) was determined; format: functional
[40] = tested on: Enterococcus faecalis; assay: Minimum inhibitory concentration against Enterococcus faecalis (GC 2242) was determined; format: functional
[41] = Minimum inhibitory concentration against SCN (GC 4551) was determined; format: functional
[42] = tested on: Escherichia coli; assay: Minimum inhibitory concentration against Escherichia coli (GC 4560) was determined; format: functional
[43] = tested on: Escherichia coli; assay: Minimum inhibitory concentration against Escherichia coli (GC 4564) was determined; format: functional
[44] = tested on: Streptococcus; assay: Minimum inhibitory concentration against Streptococcus was determined; Range is <=0.12-0.5 ug/mL; format: functional
[45] = Minimum inhibitory concentration against SCN (GC 4549) was determined; format: functional
[46] = tested on: Pseudomonas aeruginosa; assay: Minimum inhibitory concentration against Pseudomonas aeruginosa (GC 2214) control was determined; format: functional
[47] = Minimum inhibitory concentration against SCN (GC 4547) was determined; format: functional
[48] = tested on: Streptococcus pneumoniae; assay: Minimum inhibitory concentration against Streptococcus pneumoniae (GC 4565) was determined; format: functional
[49] = tested on: Enterococcus faecalis; assay: Minimum inhibitory concentration against Enterococcus faecalis (GC 3059) was determined; format: functional
[50] = Mus musculus, iv, read-out: ED50

- MIC [1]: 16 µg/mL (≈ 10.8 µM)
- MIC [2]: 16 µg/mL (≈ 10.8 µM)
- MIC [3]: 64 µg/mL (≈ 43.3 µM)
- MIC [4]: > 128 µg/mL
- MIC [5]: 32 µg/mL (≈ 21.7 µM)
- MIC [6]: 128 µg/mL (≈ 86.6 µM)
- MIC [7]: 32 µg/mL (≈ 21.7 µM)
- MIC [8]: 32 µg/mL (≈ 21.7 µM)
- MIC [9]: 2 µg/mL (≈ 1.35 µM)
Structure (SMILES): C[C@@H](c1ccccc1)[C@@H]1NC(=O)CNC(=O)[C@H](CO)NC(=O)[C@@H]([C@@H](O)[C@@H]2CN=C(N)N2[C@H]2O[C@H](O)[C@@H](O)[C@H](O)[C@@H]2O)NC(=O)[C@H]([C@@H](O)[C@@H]2CN=C(N)N2)NC(=O)[C@@H](Cc2ccc(O[C@H]3O[C@H](CO)[C@@H](O[C@H]4O[C@H](CO)[C@@H](O)[C@H](O)[C@@H]4OCc4ccc(OCc5ccccc5)cc4)[C@H](O)[C@@H]3O)cc2)NC1=O

- MIC [10]: 2 µg/mL (≈ 1.35 µM)
- MIC [11]: 2 µg/mL (≈ 1.35 µM)
- MIC [12]: 0.5 µg/mL (≈ 0.338 µM)
- MIC [13]: > 128 µg/mL
- MIC [6]: > 128 µg/mL
- MIC [14]: 1 µg/mL (≈ 0.677 µM)
- MIC [15]: 2 µg/mL (≈ 1.35 µM)
- MIC [17]: ≤ 0.12 µg/mL
- MIC [18]: 4 µg/mL (≈ 2.71 µM)
- MIC [19]: 4 µg/mL (≈ 2.71 µM)
Structure (SMILES): C[C@@H](c1ccccc1)[C@@H]1NC(=O)CNC(=O)[C@H](CO)NC(=O)[C@@H]([C@@H](O)[C@@H]2CN=C(N)N2[C@H]2O[C@H](O)[C@@H](O)[C@H](O)[C@@H]2O)NC(=O)[C@H]([C@@H](O)[C@@H]2CN=C(N)N2)NC(=O)[C@@H](Cc2ccc(O[C@H]3O[C@H](CO)[C@@H](OC4O[C@H](COCc5ccc(OCc6ccccc6)cc5)[C@@H](O)[C@H](O)[C@@H]4O)[C@H](O)[C@@H]3O)cc2)NC1=O (some centres undefined)
- ED50 [16, 50]: 0.25 mg/kg

Structure (SMILES): CN[C@H](CC(C)C)C(=O)N[C@H]1C(=O)N[C@@H](CC(N)=O)C(=O)N[C@H]2C(=O)N[C@H]3C(=O)N[C@H](C(=O)N[C@H](C(=O)O)c4cc(O)cc(O)c4-c4cc3ccc4O)[C@H](O)c3ccc(c(Cl)c3)Oc3cc2cc(c3O[C@@H]2O[C@H](CO)[C@@H](O)[C@H](O)[C@H]2O[C@H]2C[C@](C)(N)[C@H](O)[C@H](C)O2)Oc2ccc(cc2Cl)[C@H]1O [VANCOMYCIN]
- MIC [20]: > 64 µg/mL
- MIC [21]: 0.5 µg/mL (≈ 0.345 µM)
- MIC [22]: 0.5 µg/mL (≈ 0.345 µM)
- MIC [23]: > 64 µg/mL
- MIC [24]: 0.12 µg/mL (≈ 0.0828 µM)
- MIC [25]: 0.5 µg/mL (≈ 0.345 µM)
- MIC [26]: 1 µg/mL (≈ 0.69 µM)
- MIC [27]: > 64 µg/mL
- MIC [28]: 0.5 µg/mL (≈ 0.345 µM)
- MIC [29]: 1 µg/mL (≈ 0.69 µM)
- MIC [30]: 1 µg/mL (≈ 0.69 µM)
- MIC [31]: 2 µg/mL (≈ 1.38 µM)
- MIC [32]: > 64 µg/mL
- MIC [33]: 0.5 µg/mL (≈ 0.345 µM)
- MIC [34]: 0.25 µg/mL (≈ 0.173 µM)
- MIC [35]: > 64 µg/mL
- MIC [36]: 0.5 µg/mL (≈ 0.345 µM)
- MIC [37]: 1 µg/mL (≈ 0.69 µM)
- MIC [13]: > 128 µg/mL
- MIC [6]: > 128 µg/mL
- MIC [38]: 2 µg/mL (≈ 1.38 µM)
- MIC [39]: > 64 µg/mL
- MIC [40]: > 64 µg/mL
- MIC [41]: 2 µg/mL (≈ 1.38 µM)
- MIC [42]: 0.5 µg/mL (≈ 0.345 µM)
- MIC [43]: > 64 µg/mL
- MIC [44]: ≤ 0.12 µg/mL
- MIC [45]: 0.5 µg/mL (≈ 0.345 µM)
- MIC [46]: > 64 µg/mL
- MIC [47]: 2 µg/mL (≈ 1.38 µM)
- ED50 [16]: 1 mg/kg
- ED50 [16, 50]: 0.5 mg/kg
- MIC [48]: 0.25 µg/mL (≈ 0.173 µM)
- MIC [49]: > 64 µg/mL

Source: ChEMBL document CHEMBL1136657, “Novel ether derivatives of mannopeptimycin glycopeptide antibiotic” (2003)
